Measurements reported in US20250092029A1 (THE WISTAR INSTITUTE OF ANATOMY AND BIOLOGY, priority 2022, published 2025).
Like-named read-outs stand apart in the source and are kept apart here.

Key:
Format in all cases: cell-based
[1] = test system: SARS-CoV-2 (USA-WA1/2020 variant); test: Virus CPE assay in Vero-E6 cells, USA-WA1/2020; conditions: for EC50: USA-WA1/2020, Vero-E6, 4 days, read-out: EC50, inhibition of CPE; for inhibition at 3 µM: single treatment at 3 μM
[2] = test system: SARS-CoV-2 B.1.1.7/Alpha variant; test: Virus CPE assay in Vero-E6 cells, B.1.1.7; conditions: Severe acute respiratory syndrome coronavirus 2, Vero C1008, 96 h; B.1.1.7, Vero-E6, 4 days; read-out: EC50, inhibition of CPE
[3] = test system: SARS-CoV-2 B.1.351/Beta variant; test: Virus CPE assay in Vero-E6 cells, B.1.351; conditions: Severe acute respiratory syndrome coronavirus 2, Vero C1008, 96 h; B.1.351, Vero-E6, 4 days; read-out: EC50, inhibition of CPE
[4] = Severe acute respiratory syndrome coronavirus 2, Vero C1008, 96 h
[5] = Severe acute respiratory syndrome coronavirus 2, Vero C1008, 5 experiments of 8-fold replicates, read-out: percent of wells with CPE inhibited

SMILES: COc1cccc2[nH]c(C(=O)N[C@@H](CC(C)C)C(=O)N[C@@H](C[C@@H]3CCNC3=O)C(=O)COC(=O)c3c(Cl)cccc3Cl)cc12 [AP-8-001, reference compound]
- EC50 [1, 4]: 1.2 ± 0.3 µM

SMILES: O=C(CN1C(=O)[C@@H](NC(=O)c2ccccc2)COc2ccccc21)N[C@@H](C[C@@H]1CCNC1=O)C(=O)COC(=O)c1c(Cl)cccc1Cl [AP-8-011, (S)-3-(2-((S)-3-benzamido-4-oxo-3,4-dihydrobenzo[b][1,4]oxazepin-5(2H)-yl)acetamido)-2-oxo-4-((S)-2-oxopyrrolidin-3-yl)butyl 2,6-dichlorobenzoate]
- EC50 [1, 4]: 14.1 ± 3.6 µM

SMILES: O=C(CN1C(=O)[C@@H](NC(=O)OCc2ccccc2)COc2ccccc21)N[C@@H](C[C@@H]1CCNC1=O)C(=O)COC(=O)c1c(Cl)cccc1Cl [AP-8-013, (S)-3-(2-((S)-3-(benzyloxycarbonylamino)-4-oxo-3,4-dihydrobenzo[b][1,4]oxazepin-5(2H)-yl)acetamido)-2-oxo-4-((S)-2-oxopyrrolidin-3-yl)butyl 2,6-dichlorobenzoate]
- EC50 [1, 4]: 12.8 ± 1.6 µM
- inhibition at 3 µM [1, 5]: 7.5%
- EC50 [2]: 10.6 ± 1 µM
- EC50 [3]: 5.5 ± 0.4 µM

SMILES: CC(C)C[C@H](NC(=O)OCc1ccccc1)C(=O)N[C@@H](C[C@@H]1CCNC1=O)C(O)S(=O)(=O)O (stereo partly drawn) [GC-376]
- EC50 [1, 4]: 3.4 ± 0.9 µM
- EC50 [1]: 3.3 ± 1.2 µM
- EC50 [2]: 1.3 ± 0.6 µM

SMILES: CCC(CC)COC(=O)[C@H](C)N[P@](=O)(OC[C@H]1O[C@@](C#N)(c2ccc3c(N)ncnn23)[C@H](O)[C@@H]1O)Oc1ccccc1 [Remdesivir]
- EC50 [1, 4]: 3.1 ± 0.7 µM
- inhibition at 1 µM ([1]; Severe acute respiratory syndrome coronavirus 2, Vero C1008, single treatment at 1 μM, 5 experiments of 8-fold replicates, read-out: percent of wells with CPE inhibited): 2.5 ± 2.5%
- inhibition at 3 µM [1, 5]: 15 ± 9.2%
